According to PMC12406664, “New derivatives of 6-nitrocoumarin-3-thiosemicarbazone exhibit improved antiparasitic activity in the placenta against Trypanosoma cruzi and Toxoplasma gondii” (Antimicrobial Agents and Chemotherapy, 2025):

Columns and labels:
[1] = test system: T. cruzi trypomastigotes, Dm28 strain; test: Resazurin viability assay on free T. cruzi trypomastigotes; details: Trypanosoma cruzi, 24 h, read-out: Viability T. cruzi (%)
Protocol: The reduction of resazurin sodium salt was used to determine the trypanocidal and toxoplasmicidal activity of the 6-nitrocoumarin-thiosemicarbazone hybrids 1–8. For this, treatment with the compounds was carried out for 24 h at a concentration of 100 µM.
NFX was used as a positive control for T. cruzi, and PMN was used for T. gondii. Untreated parasites served as a negative control. […] Subsequently, parasites with their respective conditions were transferred to a 96-well white fluorescence reading plate, adding resazurin at a final concentration of […] with 0.8 mM phenazine. The plate was incubated for 3 hours at 37°C in a humidified atmosphere with 5% CO2, and fluorescence measurements were taken using a microplate reader (Thermo Scientific Varioskan Flash) at excitation wavelengths of 560 nm and emission wavelengths of 590 nm.

[2] = Cyclic voltammetry, reduction potentials in DMSO (HDME, vs. Ag/AgCl); details: 2.00 V/s; for E(pIIa): anodic peak IIa; for E(pIIc): cathodic peak IIc, nitro anion radical couple; for E(pIca): cathodic peak Ica; for E(pIca) / E(pIcb): nitro reduction; for E(pIcb): cathodic peak Icb; for E(pIIIc): cathodic peak IIIc, hydroxylamine formation; for E(pIVc): cathodic peak IVc, imine reduction
Protocol: Electrochemical studies were carried out on a Metrohm Autolab instrument model PGSTAT204, using dimethyl sulfoxide (DMSO) as the solvent (1 mM solutions), tetrabutylammonium perchlorate (0.1 M TBAP) as the supporting electrolyte, a hanging drop mercury electrode (HDME) as the working electrode, Ag/AgCl (3M KCl) as the reference electrode and a graphite rod as the counter electrode. All measurements were performed after bubbling with nitrogen (N2) for 10 minutes.

[3] = Lipophilicity by reversed-phase TLC (RM); details: reverse phase-C18, DMSO/phosphate buffer pH 7.4 (70:30 vol/vol), RM = log[(1/Rf) – 1]
Protocol: Lipophilicity was studied by reversed-phase TLC experiments. Precoated TLC plates SIL RP-18W/UV254 were used and eluted with DMSO/physiological serum (70:30, vol/vol). Stock solutions were prepared in pure DMSO (Aldrich) prior to use. The plates were developed in a closed chromatographic tank, dried, and the spots were located under UV light. The Rf values were averaged from three determinations and converted into RM values via the relationship: RM = log [(1/Rf)−1]

[4] = test system: T. gondii tachyzoites, RH strain; test: Resazurin viability assay on free T. gondii tachyzoites; assay type: cell-based, Toxoplasma gondii; details: Toxoplasma gondii; tachyzoites RH; 100 µM; 24 h
Text: Untreated parasites served as a negative control.

T. gondii = test system: T. gondii; design: method as in ref 26 (a), 34 (e), 38 (f); details: Fig. 2 literature compounds; ref 26 (a), 34 (e), 38 (f); cited from earlier work
T. cruzi = test system: T. cruzi; design: method as in ref 28 (b), 32, 33 (c, d); details: Fig. 2 literature compounds; ref 28 (b), 32, 33 (c, d); cited from earlier work

Structure (SMILES): CNC(=S)N/N=C(\C)c1c(O)c2cc([N+](=O)[O-])ccc2oc1=O [Compound 2, (E)−2-(1-(4-hydroxy-6-nitro-2-oxo-2H-chromen-3-yl)ethylidene)-N-methylhydrazine-1-carbothioamide]
- viability at 100 µM [1]: 81.5 ± 14.1%
- E(pIIa) [2]: −1.01 V
- E(pIIc) [2]: −1.08 V
- E(pIca) [2]: −0.89 V
- E(pIcb) [2]: −0.99 V
- Lipophilicity (RM) [3]: 0.13
- viability at 100 µM [4]: 29.1 ± 13.5%

Structure (SMILES): CCNC(=S)N/N=C(\C)c1c(O)c2cc([N+](=O)[O-])ccc2oc1=O [Compound 3, (E)-N-ethyl-2-(1-(4-hydroxy-6-nitro-2-oxo-2H-chromen-3-yl)ethylidene)hydrazine-1-carbothioamide]
- viability at 100 µM [1]: 70.7 ± 9.4%
- E(pIIa) [2]: −1.00 V
- E(pIIc) [2]: −1.08 V
- E(pIca) [2]: −0.88 V
- E(pIcb) [2]: −0.99 V
- Lipophilicity (RM) [3]: 0.33
- viability at 100 µM [4]: 49.6 ± 13.5%

Structure (SMILES): C/C(=N\NC(=S)Nc1ccccc1)c1c(O)c2cc([N+](=O)[O-])ccc2oc1=O [Compound 4, (E)−2-(1-(4-hydroxy-6-nitro-2-oxo-2H-chromen-3-yl)ethylidene)-N-phenylhydrazine-1-carbothioamide]
- viability at 100 µM [1]: 50.3 ± 5%
- E(pIIa) [2]: −1.01 V
- E(pIIc) [2]: −1.09 V
- E(pIca) [2]: −0.62 V
- E(pIcb) [2]: −1.05 V
- Lipophilicity (RM) [3]: 0.85
- viability at 100 µM [4]: 84.4 ± 13.7%

Structure (SMILES): C/C(=N\NC(N)=S)c1cc2cc([N+](=O)[O-])ccc2oc1=O [Compound 5, (E)−2-(1-(6-nitro-2-oxo-2H-chromen-3-yl)ethylidene)hydrazine-1-carbothioamide]
- viability at 100 µM [1]: 44.6 ± 7.1%
- E(pIIa) [2]: −0.90 V
- E(pIIIc) [2]: ~−1.38 V
- E(pIIc) [2]: ~−0.94 V
- E(pIVc) [2]: ~−1.66 V
- Lipophilicity (RM) [3]: −0.58
- viability at 100 µM [4]: 65.7 ± 14.8%

Structure (SMILES): CNC(=S)N/N=C(\C)c1cc2cc([N+](=O)[O-])ccc2oc1=O [Compound 6, (E)-N-methyl-2-(1-(6-nitro-2-oxo-2H-chromen-3-yl)ethylidene)hydrazine-1-carbothioamide]
- viability at 100 µM [1]: 49.8 ± 5.3%
- E(pIIa) [2]: −0.87 V
- E(pIIIc) [2]: −1.40 V
- E(pIIc) [2]: −0.93 V
- E(pIVc) [2]: −1.68 V
- Lipophilicity (RM) [3]: −0.41
- viability at 100 µM [4]: 55.5 ± 9.6%

Structure (SMILES): COc1ccc(/C(COc2ccc(F)cc2)=N\NC(N)=S)cc1 [a]
- IC50 (T. gondii): 1.09 µM

Structure (SMILES): NC(=S)N/N=C/c1ccc([N+](=O)[O-])o1 [b]
- IC50 (T. cruzi): 9.8 µM

Structure (SMILES): O=C(Cc1c([N+](=O)[O-])c(=O)oc2ccccc12)c1cccnc1 [c]
- IC50 (T. cruzi): 137 µM

Structure (SMILES): O=c1oc2c(O)c(O)ccc2cc1-c1ccccc1O [d]
- IC50 (T. cruzi): 39.7 µM

Structure (SMILES): C/C(=N\N=C1\NC(=O)CS1)c1cc2ccccc2oc1=O [e]
- IC50 (T. gondii): 8 µM

Structure (SMILES): O=C(O)c1cn(C2CC2)c2cc(N3CCN(Cc4ccc([N+](=O)[O-])o4)CC3)c(F)cc2c1=O [f]
- IC50 (T. gondii): 7.9 µM
